This is an account of results in patent US5466667A, “Prophylactic and therapeutic methods for treating edema with antamanides” (priority 1993, dated 1995).

Entries after “also recorded” stand apart in the source; their conditions may differ. Residues, ends and D or L forms follow the SMILES beside them.

Data set [1] has as its system bovine aortic endothelial cells (BAEC). The experiment in a line: Permeability assay: TBA (trypan blue-albumin) uptake by BAEC-covered microcarrier beads. Particulars: 1 uM, 30 minutes, versus untreated controls and mixture of phalloidin and Phallin A, FIG. 2. In kind it is cell-based. The method, then:
Bovine aortic endothelial cells (BAEC) were prepared, cultured, and harvested as described within Experiment 1. Subsequently, BAEC were subcultured a maximum of three times before seeding onto CYTODEX 3 microcarrier beads (Pharmacia, Inc. ) . Microcarrier beads were suspended in cell media at a concentration of 40,000 microcarriers per milliliter. Beads were suspended by stirring, using a magnetic stirrer. BAEC were seeded onto the beads at the minimum density of 15 cells per bead and allowed to reach confluency. Subsequently, BAEC covered beads were allowed to incubate for 6 days post-confluency to obtain near maximum barrier function of the cell monolayers on the beads. After this incubation period, the BAEC covered beads were ready for use within permeability experiments. […]
BAEC barrier function was measured by TBA uptake per bead; therefore, it is necessary to standardize the number of beads per milliliter. […] Standard curves for absorbance as a function of bead concentration provides a linear relationship as a basis for comparison and extrapolation. […]
BAEC barrier function was then assessed in the following manner: 3.0 ml of BAEC-covered microcarrier beads at a density of 40,000 beads per milliliter were aliquotted into a 4.5 ml test vial in duplicate. […]
This assay procedure uses colorimetry to measure TBA dye absorbance by the beads. […]

Data set [2] shares this test system. The experiment in a line: Microfilament and cell surface area measurement in cultured endothelial cells (rhodamine-phalloidin fluorescence microscopy). It is filed as cell-based. From the text:
Bovine abdominal aortas were clamped and tied in-situ and dissected free of the supporting adventitia. Aortas were transported from the abbatoir on ice. Endothelial cells were harvested by gentle ablation of the endothelium following the technique of Shepro et al. [Anat. Rec. 178:523 (1974)]; digested with 0.1% collagenase; and then pelleted and seeded onto 100 mm diameter tissue culture dishes using conventional techniques. The cell medium consisted of DULBECCO'S MODIFIED EAGLES'S MEDIUM medium (hereinafter "DME") at pH 7.4 supplemented with 10% fetal calf serum (hereinafter "FCS"), 0.1% of penicillin, 0.7% streptomycin, 0.1% amphotericin, and 0.1% glutamine. The cell media was replaced every 3 days. The cells were incubated at 37° C. in a 10% carbon dioxide, 90% ambient atmosphere (100% humidified).
This amount of confluency permits excellent visualization of cell spreading and stressed fibers. Individual confluent layers of cells were then treated with 1 uM Phallin A for 30 minutes duration; then fixed in 3.7% phosphate-buffered formaldehyde (pH 7.4) for 15 minutes. The cells on each coverslip were then permeabilized in extraction buffer (composed of 0.5M KCl, 1% triton X-100, 10 mM MgCl2, and 1 mg/ml tosyl-arginine methyl ester (hereinafter "TAME"); 17 ug/ml toluene-sulfonyl fluoride (hereinafter "TSF"); and 0.25 mg/ml DNAse 1 in PBS for a period of 10 minutes. Subsequently, this extraction buffer was removed and the cells washed three times in sequence with PBS. The cells were then stained with Rhodamine-phalloidin (an F-active specific fluorescent probe, Molecular Probes, Inc., Junction City, Oreg.) at 1 unit/200 ul per coverslip for 39 minutes duration. Subsequently, the coverslips were washed five times consecutively in PBS; mounted in a 1:1 ratio mixture of PBS/glycerol; and sealed. The cultured cells on each coverslip were illuminated for fluorescence microscopy. […] For comparative purposes, 1.0 uM of phalloidin (also known as Phallin B) or a mixture of Phallin A and Phhallin B, and PBS alone as the control was similarly evaluated. […] Clearly, the use of Phallin A at concentrations of 10^-6 to 10^-7 M is non-toxic to the cultured endothelial cells.

The conditions of data set [3]: cited from earlier work.
Data set [4] has as its system endothelial actin cytoskeleton. Particulars: cited from earlier work.
In a further data set the test system is endothelial cells. Particulars: cited from earlier work.
Another data set relates to endothelial cell. Particulars: physiological titers and concentrations; cited from earlier work.

As for `CC(C)[C@@H]1NC(=O)[C@H](Cc2ccccc2)NC(=O)[C@H](Cc2ccccc2)NC(=O)[C@@H]2CCCN2C(=O)[C@@H]2CCCN2C(=O)[C@H](Cc2ccccc2)NC(=O)[C@H](Cc2ccccc2)NC(=O)[C@H](C)NC(=O)[C@@H]2CCCN2C(=O)[C@@H]2CCCN2C1=O` [Phallin A, antamanide] (cyclo(AFFPPFFVPP)), the “endothelial cell barrier function / resistance to permeability (TBA uptake)” value in data set [1] is given as “markedly increases cell barrier function”. Further, in data set [2] (BAEC at 50% confluency, 1 uM, 30 minutes), the “cell surface area and cell perimeter” value is “increased surface area and cell perimeter”. For the same molecule, in data set [2] (BAEC, 1.0 uM, FIG. 1), the cell proliferation result was “do not alter in proliferation” and the “ratio of cell perimeter to cell area (roundness)” value was “diminishes”. For the same molecule, the “cell shape (flattening and border extension)” value in data set [2] (BAEC, 1.0 uM, FIG. 1, comparable to other agents and controls) is “substantial flattening and border extension”. Also, the “toxicity to cultured endothelial cells” value in data set [2] (concentrations of 10^-6 to 10^-7 M) is recorded as “non-toxic”. The “protection of the liver” value in data set [3] (administered in therapeutic doses) is listed as “protecting the liver completely”. For the same molecule, in data set [3] (in vivo), the “annulling toxic effects of fatal doses of phalloidin” value is “capable of annulling the toxic effects of fetal doses of phalloidin; also recorded: capable at very low dosage of counteracting the effects of an absolutely fatal dose of phalloidin”.

Take `C=C1[C@@H](C)[C@H]2[C@H](Cc3ccccc3)NC(=O)[C@]23OC(=O)/C=C/[C@H](O)CCC[C@@H](C)C/C=C/[C@H]3[C@@H]1O` [cytochalasin B]: the “permeability for plasma proteins after disruption of endothelial actin cytoskeleton” value in data set [4] was “increase in permeability for plasma proteins”.

With `NCCc1c[nH]cn1` [histamine], the “stress fibers within endothelial cells” value in the data set with endothelial cells is given as “produces stress fiber disassembly”. Moreover, the endothelial cell movement entry with endothelial cell was “inhibit endothelial cell movement”.

Regarding `NC[C@H](O)c1ccc(O)c(O)c1` [norepinephrine], the “stress fibers within endothelial cells” value with endothelial cells was “stimulate the assembly of stress fibers”. Besides, in the data set with endothelial cell, the endothelial cell movement result is “inhibit endothelial cell movement”.

Consider `NCCc1c[nH]c2ccc(O)cc12` [serotonin], for which the “stress fibers within endothelial cells” value in the data set on endothelial cells is given as “stimulate the assembly of stress fibers”. In addition, in the data set on endothelial cell, the endothelial cell movement result was “inhibit endothelial cell movement”.
